From publication PMC10222464, “Pharmacokinetic Study and Metabolite Identification of CAM106 in Rats by Validated UHPLC-MS/MS” (Pharmaceuticals, 2023)
Entries after “also recorded” stand apart in the source; their conditions may differ. Read-outs that look alike come from different tables or passages of the source.

Key:
[1] = Stability of CAM106 QC samples (rat plasma, stock solution) under different conditions; type: physicochemical; conditions: for Accuracy, autosampler stability 0 h / Accuracy, autosampler stability 4 h / Accuracy, autosampler stability 8 h / Accuracy, autosampler stability 12 h: autosampler 10 °C; for Accuracy, room temperature: room temperature 12 h; for Accuracy, stock solution 15 days: stock solution 15 days at −20 °C; for Accuracy, thaw: three freeze–thaw cycles; for Accuracy, long-term stability 1 day / Accuracy, long-term stability 7 days: −80 °C
Method: Three quality control (QC) concentrations of CAM106 were used for stability testing under five conditions: in the autosampler for 0, 4, 8, and 12 h; long-term stability at −80 °C for 1 and 7 days; stock solution for 15 days at −20 °C; at room temperature for 12 h; and three freeze–thaw cycles.
The stability tests were conducted with rat plasma containing CAM106 through the analysis of 3 replicates at 10.64, 106.38, and 638.30 ng/mL. This typically comprises short-term stability (room temperature), long-term stability (−80 °C), post-preparation stability (autosampler, 10 °C), and freeze–thaw cycle stability (room temper and −80 °C).

rats = assay: Observation of toxicity / adverse reactions in rats after dosing; type: in vivo, Sprague Dawley (SD) rats
H1N1 = system: H1N1; design: method as in PMID 22625417; conditions: read-out: IC50 for H1N1 virus; cited from earlier work
[2] = Pharmacokinetic study in rats after oral and intravenous administration (UHPLC-MS/MS, non-compartment analysis); type: in vivo, Sprague Dawley (SD) rats; conditions: for MRT inf: read-out: MRT0–inf; for MRT last: read-out: MRT0–t
Method: By using the UHPLC–MS/MS method, we successfully performed accurate quantification of CAM106 in rat plasma, and a non-compartment analysis was used to characterize the pharmacokinetic profiles of CAM106. […] After intravenous administration, T1/2 and Vd were 1.34 ± 0.64 h and 16624.89 ± 8171.11 mL/kg, respectively. […] The mean retention times after oral and intravenous administration were 3.42 ± 0.73 h and 0.63 ± 0.17 h, respectively.
All twelve male Sprague Dawley (SD) rats (weight 200 ± 20 g) were purchased from Xinjiang Medical University (Xinjiang, China). […] For the pharmacokinetic study, twelve rats were randomized into two groups (n = 6). The rats were fasted overnight before the experiment but had free access to water. […] For the oral administration group, CAM106 was intragastrically administered to the rats at a dose of 180 mg/kg. Approximately 0.2 mL of blood was drawn from the ophthalmic veins at 0, 0.25, 0.5, 0.75, 1, 1.5, 2, 4, and 10 h. For intravenous administration, CAM106 was injected into the tail at a dose of 18 mg/kg. About 0.2 mL of blood (from the ophthalmic veins) was drawn at 0, 0.25, 0.5, 0.75, 1, 1.5, 2, 4, and 6 h. After that, 1.5 mL polyethylene tubes containing EDTA were used to collect the plasma. The blood samples were centrifuged at 19,800× g for 7 min after which the supernatant was collected and stored at −80 °C for further analysis.
A 10 µL volume of methanol was added to 100 µL of each plasma sample and vortexed for 3 s (3000 rpm). Then, the mixtures were vortexed for three seconds while receiving 10 µL of internal standard (3000 rpm). A volume of 350 µL acetonitrile was added to 100 µL of each plasma sample. The mixtures were vortexed for 1 min and centrifuged for 7 min at 19800 g. A 100 µL aliquot of the supernatant was stored and 5 µL was subjected to UHPLC–MS/MS analysis.
For the pharmacokinetic study, the chromatographic separation was carried out on an Acquity UHPLC BEH C18 column (2.1 × 75 mm, 1.7 µm) with a filter. The column oven was set at 35 °C. The mobile phase aqueous solution (A, containing 0.1% formic acid) and acetonitrile (B) worked within 0–3.5 min with 60% B. The injection volume was set at 5 µL, with a flow rate of 0.2 mL/min. By using the parallel reaction monitoring (PRM) mode, the CAM106 and internal standard were found. The following adjustments were made to the electrospray ionization (ESI) source parameters: high collision dissociation cell (HCD) energy, 27 eV (for CAM106) and 42 eV (for the IS); capillary temperature, 320 °C; S-lens RF level, 55 V; automatic gain control (AGC) target, 1e^6; maximum IT, 100 ms; spray voltage, 3.2 kV.

Water solubility = type: physicochemical
Kun Ming mice = system: Kun Ming mice; design: method as in earlier work; conditions: 25 mg/kg; cited from earlier work
influenza virus B [3] = assay: Anti-influenza activity (IC50) against influenza virus B; type: cell-based; conditions: CAM106 versus rupestonic acid
influenza virus B [4] = conditions: cited from earlier work
H3N2 = system: H3N2; design: method as in PMID 22625417; conditions: read-out: IC50 for H3N2 virus; cited from earlier work
[5] = Metabolite identification in rat plasma, urine and feces by high-resolution mass spectrometry; conditions: √ found, × not found
[6] = in vivo
[7] = IV 18.0 mg/kg, n = 6, mean ± SD
[8] = PO 180.0 mg/kg, n = 6, mean ± SD
[9] = male, Sprague Dawley, rat, plasma, IV 18.0 mg/kg, n = 6, mean ± SD
[10] = male, Sprague Dawley, rat, plasma, PO 180.0 mg/kg, n = 6, mean ± SD

## C=C(C(=O)NCc1cc(-c2ccc(F)cc2)no1)C1CCC(C)C2CC(=O)C(C)=C2C1 (stereo not drawn) [CAM106]
[1]; 10.64 ng/mL
  Accuracy, autosampler stability 0 h: 95.02
  Accuracy, autosampler stability 4 h: 93.52
  Accuracy, autosampler stability 8 h: 91.35
  Accuracy, autosampler stability 12 h: 100.38
  Accuracy, room temperature: 96.71
  Accuracy, stock solution 15 days: 91.26
  Accuracy, thaw: 97.21
  Accuracy, long-term stability 1 day: 97.93
  Accuracy, long-term stability 7 days: 103.20
[1]; 106.38 ng/mL
  Accuracy, autosampler stability 0 h: 106.05
  Accuracy, autosampler stability 4 h: 101.96
  Accuracy, autosampler stability 8 h: 101.46
  Accuracy, autosampler stability 12 h: 98.88
  Accuracy, room temperature: 101.12
  Accuracy, stock solution 15 days: 108.39
  Accuracy, thaw: 106.13
  Accuracy, long-term stability 1 day: 104.02
  Accuracy, long-term stability 7 days: 94.03
[1]; 638.30 ng/mL
  Accuracy, autosampler stability 0 h: 100.00
  Accuracy, autosampler stability 4 h: 102.58
  Accuracy, autosampler stability 8 h: 97.09
  Accuracy, autosampler stability 12 h: 96.48
  Accuracy, room temperature: 102.21
  Accuracy, stock solution 15 days: 95.27
  Accuracy, thaw: 100.09
  Accuracy, long-term stability 1 day: 103.73
  Accuracy, long-term stability 7 days: 90.36
rats; 180 mg/kg oral and 18 mg/kg intravenous for 3 days
  Signs of toxicity: no signs of toxicity were observed
rats; oral 180 mg/kg or intravenous 18 mg/kg
  Adverse reactions or acute toxicity: No adverse reactions or acute toxicity were observed
H1N1
  IC50: 970 nM
[2]; [7]
  AUC0–inf: 1287.93 ± 549.25 h·(ng/mL)
  AUC0–t: 1255.32 ± 544.72 h·(ng/mL)
[2]; [8]
  AUC0–inf: 294.19 ± 221.69 h·(ng/mL)
  AUC0–t: 200.94 ± 87.45 h·(ng/mL)
  Vd: 4,605,807.05 ± 2,044,928.13 mL/kg
[2]; [9]
  clearance: 277 mL/min/kg
  half-life: 80.4 ± 38.4 min
  MRT inf: 0.79 ± 0.23 h
  MRT last: 0.63 ± 0.17 h
[2]; male, Sprague Dawley, rat, plasma, IV 18.0 mg/kg, n = 6, mean ± SD, read-out: Vd
  Vd: 27.4 L/kg
[2]; [10]
  Cmax: 61 ± 30.8 ng/mL
  Tmax: 1.21 ± 0.51 h
  half-life: 274 ± 139 min
  MRT inf: 6.69 ± 3.57 h
  MRT last: 3.42 ± 0.73 h
[2]; male, Sprague Dawley, rat, plasma, oral, 180 mg/kg, PO 180.0 mg/kg versus IV 18.0 mg/kg, read-out: F (%), absolute (oral) bioavailability
  bioavailability: ~1.6%
[2]; male, Sprague-Dawley, rat, plasma, IV 18.0 mg/kg, n = 6, mean ± SD
  Cmax: 2310 ± 1000 ng/mL
Water solubility
  Solubility in water: poorly soluble in water; also recorded: weak water solubility
Kun Ming mice
  Toxic response: no toxic response
Influenza virus B [3]
  IC50 against influenza virus B relative to rupestonic acid: about 35 fold
Influenza virus B [4]; read-out: IC50 for B virus
  IC50: 3.25 µM
H3N2
  IC50: 1090 nM
[5]; rat feces 0–48 h after administration of CAM106
  Detected in rat feces (F): √
[5]; rat urine 0–48 h after administration of CAM106
  Detected in rat urine (U): √

## C=C(C(N)=O)C1CCC(C)C2CC(=O)C(C)=C2C1 (stereo not drawn) [M1]
[6]
  Detected in rat feces (F): √
  Detected in rat urine (U): √

## C=C(C(=O)N(C)C)C1CCC(C)C2CC(=O)C(C)=C2C1 (stereo not drawn) [M4]
[6]
  Detected in rat feces (F): √
  Detected in rat urine (U): ×

## C=C(C(=O)NCc1cc(-c2ccc(F)cc2)no1)C1CC[C@H](C(=O)O)C2CC(=O)C(C)=C2C1 (stereo partly drawn) [M5]
[6]
  Detected in rat feces (F): ×
  Detected in rat urine (U): √

## C=C(C(=O)NCC1=CC(c2ccc(F)cc2)NO1)C1CCC(C)C2CC(=O)C(C)=C2C1 (stereo not drawn) [M8]
[6]
  Detected in rat feces (F): √
  Detected in rat urine (U): ×

## C=C(C(=O)O)[C@H]1CC[C@H](C)[C@@H]2CC(=O)C(C)=C2C1 [rupestonic acid, reference compound]
Influenza virus B [4]; read-out: IC50 for virus B
  IC50: 116 µM
